In patent US20240166660A1, “KRAS G12C INHIBITORS” (BeiGene Switzerland GmbH, priority 2021, published 2024) one finds IC50 data, which are given here for 24 compounds.

The structures appear in SMILES notation.

KRAS (aa 1-169) G12C, C51S, C80L, C118S, sequence (P01116 other isoform, or with tags, fused parts or gaps G12C/C51S/C80L/C118S): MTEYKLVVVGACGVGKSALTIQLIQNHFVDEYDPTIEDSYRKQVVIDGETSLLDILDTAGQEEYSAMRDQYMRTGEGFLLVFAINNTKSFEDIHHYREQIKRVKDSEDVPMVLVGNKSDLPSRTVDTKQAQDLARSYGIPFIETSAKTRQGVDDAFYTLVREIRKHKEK

The first assay has as its target KRAS (aa 1-169) G12C, C51S, C80L, C118S (Homo sapiens (Human), UniProt P01116, C118S/C51S/C80L/G12C). Briefly: Biochemical functional assay: SOS1-mediated nucleotide exchange of GDP-loaded KRAS G12C, binding to GST-cRaf RBD, FRET readout. The settings on record: 3 hrs pre-incubation with compound at 24° C., SOS1, GTPyS, bound in uM. The essentials:
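GDP-loaded His-tagged KRAS construct preincubated with compound 3 h at 24° C in 25 mM HEPES pH7.5, 10 mM MgCl2, 0.01% Triton X-100; SOS1 (aa 564-1049), GTPγS and GST-cRaf RBD added for 3 h, then anti-His Tb cryptate/anti-GST XL665 for 3 h. HTRF 665/620 ratio; IC50 by four-parameter logistic fit.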
One may read the IC50 as the point on the concentration scale where inhibition reaches its midpoint. `C=CC(=O)N1CCN(c2nc(N3CC(N(C)C)C3)nc3cc(-c4cccc(Cl)c4)c4c(c23)OCCC4)CC1` [Compound B17, 1-(4-(5-(3-chlorophenyl)-8-(3-(dimethylamino)azetidin-1-yl)-3,4-dihydro-2H-pyrano[2,3-f]quinazolin-10-yl)piperazin-1-yl)prop-2-en-1-one]: the IC50 was over 10 µM.

For the compound `C=CC(=O)N1CCN(c2nc(N3CCN(C)CC3)nc3cc(-c4cccc5cccc(Cl)c45)c4c(c23)OCCC4)CC1` [Compound B24, 1-(4-(5-(8-chloronaphthalen-1-yl)-8-(4-methylpiperazin-1-yl)-3,4-dihydro-2H-pyrano[2,3-f]quinazolin-10-yl)piperazin-1-yl)prop-2-en-1-one], the IC50 was over 10 µM.

As for `C=CC(=O)N1CCN(c2ncnc3cc(-c4ccc(O)c(Cl)c4)c4c(c23)OCCC4)C[C@@H]1CC#N` [Compound A27, (S)-2-(1-acryloyl-4-(5-(3-chloro-4-hydroxyphenyl)-3,4-dihydro-2H-pyrano[2,3-f]quinazolin-10-yl)piperazin-2-yl)acetonitrile], the IC50 is over 10 µM.

Still in this assay, the particulars now being: 3 hrs pre-incubation with compound at 24° C., SOS1, GTPyS, inhibition of nucleotide exchange.
Consider `C=CC(=O)N1CCN(c2nc(OC[C@@H]3CCCN3C)nc3cc(-c4c(Cl)c(C)cc5[nH]ncc45)c4c(c23)OCC4)CC1` [Compound B28, 1-(4-(4-(5-chloro-6-methyl-1H-indazol-4-yl)-7-(((S)-1-methylpyrrolidin-2-yl)methoxy)-2,3-dihydrofuro[2,3-f]quinazolin-9-yl)piperazin-1-yl)prop-2-en-1-one], for which the IC50 came to 0.113 µM.

Turning to `C=C(F)C(=O)N1CCN(c2nc(OC[C@@H]3CCCN3C)nc3cc(-c4ccc(F)c5ccccc45)c4c(c23)OCCC4)C[C@@H]1CC#N` [Compound B99, 2-((S)-1-(2-fluoroacryloyl)-4-(5-(4-fluoronaphthalen-1-yl)-8-(((S)-1-methylpyrrolidin-2-yl)methoxy)-3,4-dihydro-2H-pyrano[2,3-f]quinazolin-10-yl)piperazin-2-yl)acetonitrile], the IC50 was 0.152 µM.

In the case of `C=C(F)C(=O)N1CCN(c2nc(OC[C@@H]3CCCN3C)nc3cc(-c4cccc5cccc(F)c45)c4c(c23)OCCC4)C[C@@H]1CC#N` [Compound B37, 2-((S)-1-(2-fluoroacryloyl)-4-(5-(8-fluoronaphthalen-1-yl)-8-(((S)-1-methylpyrrolidin-2-yl)methoxy)-3,4-dihydro-2H-pyrano[2,3-f]quinazolin-10-yl)piperazin-2-yl)acetonitrile], the IC50 worked out at 0.008 µM.

With `C=C(F)C(=O)N1CCN(c2nc(OC[C@@H]3CCCN3C)nc3cc(-c4ccccc4C4CC4)c4c(c23)OCCC4)C[C@@H]1CC#N` [Compound B32, 2-((S)-4-(5-(2-cyclopropylphenyl)-8-(((S)-1-methylpyrrolidin-2-yl)methoxy)-3,4-dihydro-2H-pyrano[2,3-f]quinazolin-10-yl)-1-(2-fluoroacryloyl)piperazin-2-yl)acetonitrile], the concentration for half-maximal inhibition (IC50) was found to be 0.226 µM.

As for `C=C(F)C(=O)N1CCN(c2nc(N3CC(CC#N)(N(C)C)C3)nc3cc(-c4cccc5cccc(Cl)c45)c4c(c23)OCCC4)C[C@@H]1CC#N` [Compound B90, (S)-2-(1-(5-(8-chloronaphthalen-1-yl)-10-(3-(cyanomethyl)-4-(2-fluoroacryloyl)piperazin-1-yl)-3,4-dihydro-2H-pyrano[2,3-f]quinazolin-8-yl)-3-(dimethylamino)azetidin-3-yl)acetonitrile], the IC50 is 0.037 µM.

For `C=CC(=O)N1CCN(c2ncnc3cc(-c4c(Cl)ccc5[nH]ncc45)c4c(c23)OCCC4)C[C@@H]1CC#N` (single isomer, unassigned) [Compound A15], the half-inhibitory concentration (IC50) is 0.0926 µM.

Turning to `C=CC(=O)N1CCN(c2nc(OC[C@@H]3CCCN3C)nc3cc(-c4ccccc4C4CC4)c4ccoc4c23)CC1` [Compound B58, (S)-1-(4-(4-(2-cyclopropylphenyl)-7-((1-methylpyrrolidin-2-yl)methoxy)furo[2,3-f]quinazolin-9-yl)piperazin-1-yl)prop-2-en-1-one], the half-maximal inhibitory concentration (IC50) was determined as 0.958 µM.

Turning to `C=CC(=O)N1CCN(c2nc(OC[C@@H]3CCCN3C)nc3cc(-c4c(Cl)c(C)cc5[nH]ncc45)c4ccoc4c23)CC1` [Compound B34, 1-(4-(4-(5-chloro-6-methyl-1H-indazol-4-yl)-7-(((S)-1-methylpyrrolidin-2-yl)methoxy)furo[2,3-f]quinazolin-9-yl)piperazin-1-yl)prop-2-en-1-one], the IC50 was determined as 0.065 µM.

As to `C=CC(=O)N1CCN(c2nc(OC[C@@H]3CCCN3C)nc3cc(-c4c(F)cccc4Cl)c4ccoc4c23)CC1` [Compound B57, 1-(4-(4-(2-chloro-6-fluorophenyl)-7-(((S)-1-methylpyrrolidin-2-yl)methoxy)furo[2,3-f]quinazolin-9-yl)piperazin-1-yl)prop-2-en-1-one], the IC50 was 1.02 µM.

For `C=C(F)C(=O)N1CCN(c2nc(N3CC(N(C)C)C3)nc3cc(-c4c(Cl)c(C)cc5[nH]ncc45)c4ccoc4c23)C[C@@H]1CC#N` [Compound B79, 2-((2S)-4-(4-(5-chloro-6-methyl-1H-indazol-4-yl)-7-(3-(dimethylamino)azetidin-1-yl)furo[2,3-f]quinazolin-9-yl)-1-(2-fluoroacryloyl)piperazin-2-yl)acetonitrile], the IC50 is 0.059 µM.

In the case of `C=CC(=O)N1CCN(c2ncnc3cc(-c4cccc5ccccc45)c4c(c23)OCC=C4)C[C@@H]1CC#N` [Compound A8, (S)-2-(1-acryloyl-4-(5-(naphthalen-1-yl)-2H-pyrano[2,3-f]quinazolin-10-yl)piperazin-2-yl)acetonitrile], the IC50 stood at 0.0821 µM.

In the case of `C=CC(=O)N1CCN(c2nc(OC[C@@H]3C[C@@H](F)CN3C)nc3cc(-c4c(Cl)c(C)cc5[nH]ncc45)c4c(c23)OCCC4)CC1` [Compound B15, 1-(4-(5-(5-chloro-6-methyl-1H-indazol-4-yl)-8-(((2S,4R)-4-fluoro-1-methylpyrrolidin-2-yl)methoxy)-3,4-dihydro-2H-pyrano[2,3-f]quinazolin-10-yl)piperazin-1-yl)prop-2-en-1-one], the IC50 worked out at 0.107 µM.

`C=C(F)C(=O)N1CCN(c2nc(OC[C@@H]3CCCN3C)nc3cc(-c4cccc5cccc(Cl)c45)c4c(c23)OCCC4)C[C@@H]1CC#N` (single isomer, unassigned) [Compound B68]: the IC50 came out at 0.177 µM.

In the case of `C=CC(=O)N1CCN(c2nc(N3CC(CN(C)C)C3)nc3cc(-c4cccc5cccc(Cl)c45)c4c(c23)OCCC4)CC1` [Compound B26, 1-(4-(5-(8-chloronaphthalen-1-yl)-8-(3-((dimethylamino)methyl)azetidin-1-yl)-3,4-dihydro-2H-pyrano[2,3-f]quinazolin-10-yl)piperazin-1-yl)prop-2-en-1-one], the half-inhibitory concentration (IC50) stood at 0.239 µM.

Take `C=CC(=O)N1CCN(c2nc(OCCN(C)C)nc3cc(-c4c(Cl)c(C)cc5[nH]ncc45)c4c(c23)OCCC4)C[C@@H]1CC#N` [Compound B5, 2-((2S)-1-acryloyl-4-(5-(5-chloro-6-methyl-1H-indazol-4-yl)-8-(2-(dimethylamino)ethoxy)-3,4-dihydro-2H-pyrano[2,3-f]quinazolin-10-yl)piperazin-2-yl)acetonitrile]: the IC50 was 0.0079 µM.

For `C=C(F)C(=O)N1CCN(c2nc(OC[C@@H]3CCCN3C)nc3cc(-c4ccccc4C(F)(F)F)c4ccoc4c23)C[C@@H]1CC#N` [Compound B40, 2-((S)-1-(2-fluoroacryloyl)-4-(7-(((S)-1-methylpyrrolidin-2-yl)methoxy)-4-(2-(trifluoromethyl)phenyl)furo[2,3-f]quinazolin-9-yl)piperazin-2-yl)acetonitrile], the IC50 stood at 0.014 µM.

As to `C=C(F)C(=O)N1CCN(c2nc(OC[C@H]3CCCN3C)nc3cc(-c4cccc5cccc(Cl)c45)c4c(c23)OCCC4)C[C@@H]1CC#N` (single isomer, unassigned) [Compound B104], the IC50 is 0.00816 µM.

`C=C(F)C(=O)N1CCN(c2nc(OC[C@@H]3CCCN3C)nc3cc(-c4cccc(Cl)c4C(F)(F)F)c4c(c23)OCCC4)C[C@@H]1CC#N` [Compound B103, 2-((S)-4-(5-(3-chloro-2-(trifluoromethyl)phenyl)-8-(((S)-1-methylpyrrolidin-2-yl)methoxy)-3,4-dihydro-2H-pyrano[2,3-f]quinazolin-10-yl)-1-(2-fluoroacryloyl)piperazin-2-yl)acetonitrile]: the IC50 stood at 0.00695 µM.

Turning to `C=C(F)C(=O)N1CCN(c2nc(N3CC(N(C)C)C3)nc3cc(-c4c(O)cccc4F)c4c(c23)OCCC4)C[C@@H]1CC#N` [Compound B8, 2-((2S)-4-(8-(3-(dimethylamino)azetidin-1-yl)-5-(2-fluoro-6-hydroxyphenyl)-3,4-dihydro-2H-pyrano[2,3-f]quinazolin-10-yl)-1-(2-fluoroacryloyl)piperazin-2-yl)acetonitrile], the half-inhibitory concentration (IC50) came out at 0.255 µM.

With `C=C(F)C(=O)N1CCN(c2nc(OC[C@@H]3CCCN3C)nc3cc(-c4cccc5cccc(Cl)c45)c4ccoc4c23)C[C@@H]1CC#N` [Compound B41, 2-((S)-4-(4-(8-chloronaphthalen-1-yl)-7-(((S)-1-methylpyrrolidin-2-yl)methoxy)furo[2,3-f]quinazolin-9-yl)-1-(2-fluoroacryloyl)piperazin-2-yl)acetonitrile], the IC50 turned out to be 0.0038 µM.

In the case of `C=C(F)C(=O)N1CCN(c2nc(OC[C@@H]3CCCN3C)nc3cc(-c4c(Cl)c(C)cc5[nH]ncc45)c4ccoc4c23)C[C@@H]1CC#N` [Compound B35, 2-((2S)-4-(4-(5-chloro-6-methyl-1H-indazol-4-yl)-7-(((S)-1-methylpyrrolidin-2-yl)methoxy)furo[2,3-f]quinazolin-9-yl)-1-(2-fluoroacryloyl)piperazin-2-yl)acetonitrile], the IC50 came to 0.0084 µM.
